The results in this text go back to ChEMBL document CHEMBL1137917, “Synthesis and structure-activity investigation of iodinated arylhydantoins and arylthiohydantoins for development as androgen receptor radioligands” (Bioorg Med Chem Lett, 2004).

The target in this assay is T1, Androgen receptor (Rattus norvegicus, UniProt P15207).
T1 sequence (P15207 whole entry): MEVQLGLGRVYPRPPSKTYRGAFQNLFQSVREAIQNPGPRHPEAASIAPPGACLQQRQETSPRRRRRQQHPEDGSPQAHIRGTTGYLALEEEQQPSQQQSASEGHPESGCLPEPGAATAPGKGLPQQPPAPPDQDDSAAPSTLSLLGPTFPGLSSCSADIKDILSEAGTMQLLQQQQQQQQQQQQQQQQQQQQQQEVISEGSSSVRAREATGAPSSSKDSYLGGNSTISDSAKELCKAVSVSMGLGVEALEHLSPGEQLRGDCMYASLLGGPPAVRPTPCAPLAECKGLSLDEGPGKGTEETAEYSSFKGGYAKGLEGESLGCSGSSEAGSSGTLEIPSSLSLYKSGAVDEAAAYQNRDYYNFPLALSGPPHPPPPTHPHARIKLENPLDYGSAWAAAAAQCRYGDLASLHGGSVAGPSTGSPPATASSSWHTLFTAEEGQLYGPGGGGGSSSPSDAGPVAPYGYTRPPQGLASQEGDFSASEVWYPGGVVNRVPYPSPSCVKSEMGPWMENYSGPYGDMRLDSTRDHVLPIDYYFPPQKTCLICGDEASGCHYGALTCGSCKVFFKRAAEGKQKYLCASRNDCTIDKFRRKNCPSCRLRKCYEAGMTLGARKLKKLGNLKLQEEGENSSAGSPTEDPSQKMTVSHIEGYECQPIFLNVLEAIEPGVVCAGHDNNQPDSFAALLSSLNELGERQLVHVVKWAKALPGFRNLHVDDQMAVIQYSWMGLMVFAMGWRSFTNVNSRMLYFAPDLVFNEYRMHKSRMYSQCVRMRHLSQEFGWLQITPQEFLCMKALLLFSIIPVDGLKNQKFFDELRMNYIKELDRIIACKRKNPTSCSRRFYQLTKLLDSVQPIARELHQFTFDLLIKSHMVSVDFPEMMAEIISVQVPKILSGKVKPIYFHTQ
Description: Inhibition of rat prostate cytosolic androgen receptor.
Turning to `CC1(C)C(=O)N(c2ccc(C#N)c(I)c2)C(=S)N1Cc1ccccc1`, the Ki (in general, a measure of affinity in units of concentration, obtained from inhibition or displacement) is 0.219 µM.
To `CCCCN1C(=S)N(c2ccc(C#N)c(I)c2)C(=O)C1(C)C` belongs 0.117 µM; to `CC1(C)C(=O)N(c2ccc(C#N)c(I)c2)C(=O)N1CCCCO`, 0.002 µM; to `CN1C(=S)N(c2ccc(C#N)c(I)c2)C(=O)C1(C)C`, 0.0025 µM.
On to `CCCCN1C(=O)N(c2ccc(C#N)c(I)c2)C(=O)C1(C)C`, for which the affinity corresponds to a Ki of 0.077 µM.
With `COCCN1C(=S)N(c2ccc(C#N)c(I)c2)C(=O)C1(C)C` the figure was 0.037 µM; with `C=CCN1C(=O)N(c2ccc(C#N)c(I)c2)C(=O)C1(C)C`, 0.059 µM.
With `CC1(C)C(=O)N(c2ccc(C#N)c(I)c2)C(=O)N1CCCc1ccccc1` the figure was 0.639 µM.
